Assay: MALDI-TOF screening of Ni^2+ dependent hydrolysis in a combinatorial peptide library
Assay type: physicochemical
Settings: Ni^2+ 2 mM, pH 8.2, 10 mM Tris, score=24/tm
Procedure, shortened: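 The screen used 1 mM peptide mixtures in 10 mM Tris, pH 8.2, with 2 mM Ni2+ at two temperatures, 37 °C and 45 °C. Product appearance and substrate decline were monitored visually by MALDI-TOF over 8 h. Scores for X and Z were then summed by row and column to rank substitutions.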

[1] = CH3CO-Gly-Ala-Ser-X-His-Z-Lys-Phe-Leu-NH2 library, 37° C.
[2] = CH3CO-Gly-Ala-Ser-X-His-Z-Lys-Phe-Leu-NH2 library, 45° C.
[3] = CH3CO-Gly-Ala-Thr-X-His-Z-Lys-Phe-Leu-NH2 library, 37° C.
[4] = CH3CO-Gly-Ala-Thr-X-His-Z-Lys-Phe-Leu-NH2 library, 45° C.

Substance	hydrolysis score from MALDI-TOF screening [1]	hydrolysis score from MALDI-TOF screening [2]	hydrolysis score from MALDI-TOF screening [3]	hydrolysis score from MALDI-TOF screening [4]
Ac-GASIHMKFL-NH2 [SIHM]	0 (a score of 0 if no trace of the product of hydrolysis was seen after 8 hours of incubation)	0 (a score of 0 if no trace of the product of hydrolysis was seen after 8 hours of incubation)		
Ac-GATAHNKFL-NH2 [TAHN]			0 (a score of 0 if no trace of the product of hydrolysis was seen after 8 hours of incubation)	0 (a score of 0 if no trace of the product of hydrolysis was seen after 8 hours of incubation)
Ac-GATTHEKFL-NH2 [TTHE]			0 (a score of 0 if no trace of the product of hydrolysis was seen after 8 hours of incubation)	0 (a score of 0 if no trace of the product of hydrolysis was seen after 8 hours of incubation)
Ac-GATVHLKFL-NH2 [TVHL]			0 (a score of 0 if no trace of the product of hydrolysis was seen after 8 hours of incubation)	0 (a score of 0 if no trace of the product of hydrolysis was seen after 8 hours of incubation)
Ac-GASPHEKFL-NH2 [SPHE]	0 (a score of 0 if no trace of the product of hydrolysis was seen after 8 hours of incubation)	0 (a score of 0 if no trace of the product of hydrolysis was seen after 8 hours of incubation)		
Ac-GASAHRKFL-NH2 [SAHR]	3 (a score of 3 for detection at 8 hours)	6 (a score of 6 for detection at 4 hours)		
Ac-GASNHPKFL-NH2 [SNHP]	0 (a score of 0 if no trace of the product of hydrolysis was seen after 8 hours of incubation)	0 (a score of 0 if no trace of the product of hydrolysis was seen after 8 hours of incubation)		
Ac-GATTHTKFL-NH2 [TTHT]			0 (a score of 0 if no trace of the product of hydrolysis was seen after 8 hours of incubation)	0 (a score of 0 if no trace of the product of hydrolysis was seen after 8 hours of incubation)
Ac-GASKHDKFL-NH2 [SKHD]	0 (a score of 0 if no trace of the product of hydrolysis was seen after 8 hours of incubation)	0 (a score of 0 if no trace of the product of hydrolysis was seen after 8 hours of incubation)		
Ac-GASPHWKFL-NH2 [SPHW]	0 (a score of 0 if no trace of the product of hydrolysis was seen after 8 hours of incubation)	0 (a score of 0 if no trace of the product of hydrolysis was seen after 8 hours of incubation)		
Ac-GATFHKKFL-NH2 [TFHK]			3 (a score of 3 for detection at 8 hours)	3 (a score of 3 for detection at 8 hours)
Ac-GASAHMKFL-NH2 [SAHM]	0 (a score of 0 if no trace of the product of hydrolysis was seen after 8 hours of incubation)	0 (a score of 0 if no trace of the product of hydrolysis was seen after 8 hours of incubation)		
Ac-GASRHHKFL-NH2 [SRHH]	4 (a score of 4 for detection at 6 hours)	4 (a score of 4 for detection at 6 hours)		
Ac-GASNHIKFL-NH2 [SNHI]	4 (a score of 4 for detection at 6 hours)	4 (a score of 4 for detection at 6 hours)		
Ac-GATSHQKFL-NH2 [TSHQ]			0 (a score of 0 if no trace of the product of hydrolysis was seen after 8 hours of incubation)	0 (a score of 0 if no trace of the product of hydrolysis was seen after 8 hours of incubation)
Ac-GATPHAKFL-NH2 [TPHA]				0 (a score of 0 if no trace of the product of hydrolysis was seen after 8 hours of incubation)
Ac-GASWHYKFL-NH2 [SWHY]	0 (a score of 0 if no trace of the product of hydrolysis was seen after 8 hours of incubation)	6 (a score of 6 for detection at 4 hours)		
Ac-GATTHRKFL-NH2 [TTHR]			0 (a score of 0 if no trace of the product of hydrolysis was seen after 8 hours of incubation)	3 (a score of 3 for detection at 8 hours)
Ac-GATVHRKFL-NH2 [TVHR]			0 (a score of 0 if no trace of the product of hydrolysis was seen after 8 hours of incubation)	3 (a score of 3 for detection at 8 hours)
Ac-GASMHWKFL-NH2 [SMHW]	4 (a score of 4 for detection at 6 hours)	6 (a score of 6 for detection at 4 hours)		

Substance	hydrolysis score from MALDI-TOF screening [1]	hydrolysis score from MALDI-TOF screening [2]	hydrolysis score from MALDI-TOF screening [3]	hydrolysis score from MALDI-TOF screening [4]
Ac-GATVHYKFL-NH2 [TVHY]			0 (a score of 0 if no trace of the product of hydrolysis was seen after 8 hours of incubation)	0 (a score of 0 if no trace of the product of hydrolysis was seen after 8 hours of incubation)
Ac-GATSHFKFL-NH2 [TSHF]			0 (a score of 0 if no trace of the product of hydrolysis was seen after 8 hours of incubation)	0 (a score of 0 if no trace of the product of hydrolysis was seen after 8 hours of incubation)
Ac-GATYHYKFL-NH2 [TYHY]			0 (a score of 0 if no trace of the product of hydrolysis was seen after 8 hours of incubation)	0 (a score of 0 if no trace of the product of hydrolysis was seen after 8 hours of incubation)
Ac-GATYHNKFL-NH2 [TYHN]			0 (a score of 0 if no trace of the product of hydrolysis was seen after 8 hours of incubation)	0 (a score of 0 if no trace of the product of hydrolysis was seen after 8 hours of incubation)
Ac-GASIHDKFL-NH2 [SIHD]	0 (a score of 0 if no trace of the product of hydrolysis was seen after 8 hours of incubation)	0 (a score of 0 if no trace of the product of hydrolysis was seen after 8 hours of incubation)		
Ac-GATNHKKFL-NH2 [TNHK]			0 (a score of 0 if no trace of the product of hydrolysis was seen after 8 hours of incubation)	0 (a score of 0 if no trace of the product of hydrolysis was seen after 8 hours of incubation)
Ac-GATAHSKFL-NH2 [TAHS]			0 (a score of 0 if no trace of the product of hydrolysis was seen after 8 hours of incubation)	0 (a score of 0 if no trace of the product of hydrolysis was seen after 8 hours of incubation)
Ac-GATLHHKFL-NH2 [TLHH]			0 (a score of 0 if no trace of the product of hydrolysis was seen after 8 hours of incubation)	0 (a score of 0 if no trace of the product of hydrolysis was seen after 8 hours of incubation)
Ac-GASRHNKFL-NH2 [SRHN]	0 (a score of 0 if no trace of the product of hydrolysis was seen after 8 hours of incubation)	0 (a score of 0 if no trace of the product of hydrolysis was seen after 8 hours of incubation)		
Ac-GASLHIKFL-NH2 [SLHI]	3 (a score of 3 for detection at 8 hours)	0 (a score of 0 if no trace of the product of hydrolysis was seen after 8 hours of incubation)		
Ac-GASNHYKFL-NH2 [SNHY]	3 (a score of 3 for detection at 8 hours)	3 (a score of 3 for detection at 8 hours)		
Ac-GASTHFKFL-NH2 [STHF]	0 (a score of 0 if no trace of the product of hydrolysis was seen after 8 hours of incubation)	3 (a score of 3 for detection at 8 hours)		
Ac-GATGHGKFL-NH2 [TGHG]			0 (a score of 0 if no trace of the product of hydrolysis was seen after 8 hours of incubation)	0 (a score of 0 if no trace of the product of hydrolysis was seen after 8 hours of incubation)
Ac-GASKHTKFL-NH2 [SKHT]	0 (a score of 0 if no trace of the product of hydrolysis was seen after 8 hours of incubation)	0 (a score of 0 if no trace of the product of hydrolysis was seen after 8 hours of incubation)		
Ac-GATIHHKFL-NH2 [TIHH]			0 (a score of 0 if no trace of the product of hydrolysis was seen after 8 hours of incubation)	0 (a score of 0 if no trace of the product of hydrolysis was seen after 8 hours of incubation)
Ac-GASQHWKFL-NH2 [SQHW]	6 (a score of 6 for detection at 4 hours)	6 (a score of 6 for detection at 4 hours)		
Ac-GASMHSKFL-NH2 [SMHS]	0 (a score of 0 if no trace of the product of hydrolysis was seen after 8 hours of incubation)	3 (a score of 3 for detection at 8 hours)		
Ac-GASVHKKFL-NH2 [SVHK]	3 (a score of 3 for detection at 8 hours)	4 (a score of 4 for detection at 6 hours)		
Ac-GASSHWKFL-NH2 [SSHW]	6 (a score of 6 for detection at 4 hours)	12 (a score of 12, if it was seen to be partially hydrolysed at 2 hours)		

Reference: US8969516B2, “Method of hydrolysis of peptide bond” (priority 2006, dated 2015)
